Assay results taken from patent US20240050435A1, “METHODS FOR TREATING CANCER” (Washington University, priority 2022, published 2024).

Columns and labels:
[1] = system: TP53-mutant hematopoietic stem cells (HSCs); assay: Mixed bone marrow chimeras (wildtype and R172H TP53 bone marrow); format: in vivo; details: mice with mixed wildtype / R172H TP53 bone marrow chimeras
From the text: To assess the impact of combination treatment on TP53-mutant hematopoietic stem cells (HSCs), mixed bone marrow chimeras transplanted with both wildtype and R172H TP53 bone marrow were established as illustrated in FIG. 13.

ATR = ATR (Homo sapiens, UniProt Q13535); details: cited from earlier work
Chain of ATR (Q13535 whole entry): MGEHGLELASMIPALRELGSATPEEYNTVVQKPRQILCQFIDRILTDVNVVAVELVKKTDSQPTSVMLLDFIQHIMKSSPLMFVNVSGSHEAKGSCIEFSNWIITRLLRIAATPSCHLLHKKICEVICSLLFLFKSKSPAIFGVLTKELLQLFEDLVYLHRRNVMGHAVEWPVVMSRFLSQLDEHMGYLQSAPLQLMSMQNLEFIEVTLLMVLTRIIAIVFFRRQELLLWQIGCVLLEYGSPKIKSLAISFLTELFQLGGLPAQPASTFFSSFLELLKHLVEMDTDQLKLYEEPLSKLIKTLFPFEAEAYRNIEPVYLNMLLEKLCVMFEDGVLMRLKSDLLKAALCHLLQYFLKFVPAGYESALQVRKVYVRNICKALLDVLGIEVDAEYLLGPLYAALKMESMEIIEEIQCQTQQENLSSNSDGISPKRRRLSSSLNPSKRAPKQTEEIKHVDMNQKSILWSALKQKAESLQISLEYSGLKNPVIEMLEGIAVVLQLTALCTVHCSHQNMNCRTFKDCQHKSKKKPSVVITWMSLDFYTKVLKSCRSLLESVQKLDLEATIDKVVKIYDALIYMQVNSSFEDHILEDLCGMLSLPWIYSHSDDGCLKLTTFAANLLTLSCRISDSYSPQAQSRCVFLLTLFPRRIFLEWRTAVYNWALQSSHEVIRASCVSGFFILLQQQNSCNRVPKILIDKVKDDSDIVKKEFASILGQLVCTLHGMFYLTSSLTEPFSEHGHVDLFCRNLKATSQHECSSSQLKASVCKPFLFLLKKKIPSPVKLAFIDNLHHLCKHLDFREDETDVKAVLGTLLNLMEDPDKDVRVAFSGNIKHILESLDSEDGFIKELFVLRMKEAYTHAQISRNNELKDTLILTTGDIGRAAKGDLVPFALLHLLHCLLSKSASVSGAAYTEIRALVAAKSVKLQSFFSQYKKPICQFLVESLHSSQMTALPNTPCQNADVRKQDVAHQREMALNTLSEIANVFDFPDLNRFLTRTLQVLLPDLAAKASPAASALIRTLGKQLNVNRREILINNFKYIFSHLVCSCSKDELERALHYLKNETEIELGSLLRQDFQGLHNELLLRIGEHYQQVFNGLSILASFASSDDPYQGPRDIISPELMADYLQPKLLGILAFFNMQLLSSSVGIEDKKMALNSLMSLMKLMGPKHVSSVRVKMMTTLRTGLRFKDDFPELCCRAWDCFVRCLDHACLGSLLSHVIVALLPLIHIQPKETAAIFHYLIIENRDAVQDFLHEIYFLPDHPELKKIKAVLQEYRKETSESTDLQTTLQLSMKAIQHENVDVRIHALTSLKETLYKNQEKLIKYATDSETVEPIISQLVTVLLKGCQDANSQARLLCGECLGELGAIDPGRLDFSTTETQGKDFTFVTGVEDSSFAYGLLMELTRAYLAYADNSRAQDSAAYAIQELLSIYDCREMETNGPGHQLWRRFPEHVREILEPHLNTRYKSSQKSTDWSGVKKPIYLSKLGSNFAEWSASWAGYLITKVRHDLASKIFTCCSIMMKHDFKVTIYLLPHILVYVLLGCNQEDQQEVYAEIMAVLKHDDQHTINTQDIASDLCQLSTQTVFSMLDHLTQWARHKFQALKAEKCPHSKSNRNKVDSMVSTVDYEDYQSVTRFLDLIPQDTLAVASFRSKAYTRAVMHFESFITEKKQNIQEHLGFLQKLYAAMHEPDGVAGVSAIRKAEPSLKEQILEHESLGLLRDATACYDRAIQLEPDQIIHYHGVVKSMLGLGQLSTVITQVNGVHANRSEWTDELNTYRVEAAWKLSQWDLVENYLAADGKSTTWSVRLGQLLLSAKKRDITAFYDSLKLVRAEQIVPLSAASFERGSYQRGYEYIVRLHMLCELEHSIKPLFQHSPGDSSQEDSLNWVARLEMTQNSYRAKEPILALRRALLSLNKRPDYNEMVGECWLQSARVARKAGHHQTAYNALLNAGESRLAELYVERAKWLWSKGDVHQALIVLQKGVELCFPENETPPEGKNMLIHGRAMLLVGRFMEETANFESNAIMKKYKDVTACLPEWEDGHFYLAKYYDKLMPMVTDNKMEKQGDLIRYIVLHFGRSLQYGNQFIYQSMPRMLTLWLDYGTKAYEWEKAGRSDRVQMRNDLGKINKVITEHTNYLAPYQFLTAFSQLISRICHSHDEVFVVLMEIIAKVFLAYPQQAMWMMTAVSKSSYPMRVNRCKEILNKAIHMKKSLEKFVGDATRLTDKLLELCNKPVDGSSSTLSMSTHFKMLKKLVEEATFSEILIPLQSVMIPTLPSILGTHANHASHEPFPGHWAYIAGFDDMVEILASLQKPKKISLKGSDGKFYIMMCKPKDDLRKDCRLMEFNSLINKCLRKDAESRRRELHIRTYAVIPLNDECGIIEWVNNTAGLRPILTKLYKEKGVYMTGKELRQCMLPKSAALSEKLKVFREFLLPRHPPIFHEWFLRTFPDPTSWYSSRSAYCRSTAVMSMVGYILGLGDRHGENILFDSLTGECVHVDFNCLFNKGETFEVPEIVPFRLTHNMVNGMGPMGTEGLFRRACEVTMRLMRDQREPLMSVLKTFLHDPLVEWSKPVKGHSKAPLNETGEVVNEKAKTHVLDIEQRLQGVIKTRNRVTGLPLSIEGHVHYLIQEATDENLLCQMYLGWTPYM
Chain of ATR (Q8WXE1 whole entry partner): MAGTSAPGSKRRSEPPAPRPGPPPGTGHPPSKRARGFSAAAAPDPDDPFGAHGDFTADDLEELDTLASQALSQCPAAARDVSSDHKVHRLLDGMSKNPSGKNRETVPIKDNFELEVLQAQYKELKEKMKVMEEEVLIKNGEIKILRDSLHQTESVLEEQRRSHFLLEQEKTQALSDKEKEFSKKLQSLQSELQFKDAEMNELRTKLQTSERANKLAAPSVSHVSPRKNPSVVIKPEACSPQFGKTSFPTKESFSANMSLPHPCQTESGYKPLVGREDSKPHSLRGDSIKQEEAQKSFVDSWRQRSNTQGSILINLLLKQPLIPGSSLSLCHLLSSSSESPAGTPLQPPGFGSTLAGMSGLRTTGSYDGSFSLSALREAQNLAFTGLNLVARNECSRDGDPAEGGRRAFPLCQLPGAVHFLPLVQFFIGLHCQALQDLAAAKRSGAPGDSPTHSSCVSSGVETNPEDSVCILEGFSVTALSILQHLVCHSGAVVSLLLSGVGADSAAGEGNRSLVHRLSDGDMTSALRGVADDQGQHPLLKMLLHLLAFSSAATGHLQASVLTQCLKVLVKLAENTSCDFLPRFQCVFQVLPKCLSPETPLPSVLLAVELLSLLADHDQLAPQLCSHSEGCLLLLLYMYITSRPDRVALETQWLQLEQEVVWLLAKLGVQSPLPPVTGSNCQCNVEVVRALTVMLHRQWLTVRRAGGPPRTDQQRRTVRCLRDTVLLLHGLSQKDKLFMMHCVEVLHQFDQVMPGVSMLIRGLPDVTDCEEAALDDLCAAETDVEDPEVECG

Row | SMILES | effect on TP53-mutant HSCs [1] | inhibition of ATR signaling (ATR)
1 | N.N.[Cl][Pt][Cl] [cis-platinum] | significant expansion of TP53-mutant HSCs | 
2 | Cn1cncc1-c1c(F)cncc1NC(=O)c1c(N)nn2cc(F)cnc12 [M1774] |  | potent and specific inhibitor of ATR signaling
